Measured values from US5958918A, “Substituted (sulfinic acid, sulfonic acid, sulfonylamino or sulfinylamino) N-[(aminominomethyl)phenylalkyl]-azaheterocyclylamide compounds” (Rhone-Poulenc Rorer Pharmaceuticals Inc., priority 1997, dated 1999).
Structures can show the parent of a compound that is named as a salt.

Biological target: factor Xa (Homo sapiens, UniProt P00742)
Test: Factor Xa inhibitor enzyme assay (purified enzyme, chromogenic peptide-p-nitroanilide substrate; apparent Ki by Cheng-Prusoff)
Assay type: biochemical
Procedure: Factor Xa Inhibitor: Enzyme Assay Methods
All enzyme assays are carried out at room temperature in 96-well microtiter plates using a final enzyme concentration of 1 nM. The concentrations of factor Xa and thrombin are determined by active site titration and the concentrations of all other enzymes are based on the protein concentration supplied by the manufacturer. […] Compound dilutions are added to wells containing buffer and enzyme and pre-equilibrated for between 5 and 30 minutes. […] Under these conditions, less than 10% of the substrate is utilized in all assays. […] The apparent Ki values are then determined according to the Cheng-Prusoff equation (IC50=Ki [1+[S]/Km]) assuming competitive inhibition kinetics.

Chain of factor Xa (P00742 235-488 limits assumed): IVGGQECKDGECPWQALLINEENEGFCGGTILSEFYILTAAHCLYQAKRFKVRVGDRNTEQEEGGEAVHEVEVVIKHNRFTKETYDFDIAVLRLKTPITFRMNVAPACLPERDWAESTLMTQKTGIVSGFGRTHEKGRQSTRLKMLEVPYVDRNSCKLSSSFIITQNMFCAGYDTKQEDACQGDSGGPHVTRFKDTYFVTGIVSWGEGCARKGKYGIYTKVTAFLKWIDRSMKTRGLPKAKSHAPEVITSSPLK
Chain of factor Xa (P00742 41-179 partner limits assumed): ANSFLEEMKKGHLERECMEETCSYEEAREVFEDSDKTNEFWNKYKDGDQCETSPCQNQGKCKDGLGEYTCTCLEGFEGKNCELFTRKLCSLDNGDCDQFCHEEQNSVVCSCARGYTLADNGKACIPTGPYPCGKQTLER

Compound: N=C(N)c1cccc(CN2CC[C@H](NS(=O)(=O)c3ccc(-c4ccccn4)s3)C2=O)c1 [Example 7, 5-Pyrid-2-ylthiophene-2-sulfonic acid {1-[3-(aminoiminomethyl)benzyl]-2-oxopyrrolidin-3-(S)-yl}amide trifluoroacetate]
- Ki: 100 nM
